Target: T1, binding between NRF2 and KEAP1 (Homo sapiens, UniProt Q14145)
T1 construct: expressed in transfected cells; host or cells: HCE-T cells; each protein was expressed separately, and the two cell lysates were mixed in the well
Test: Measurement 1 of Nrf2 activating action (binding assay): BRET assay of inhibition of the binding between NRF2 and KEAP1
Details: 50% binding inhibitory concentration, NanoLuc-NRF2 / KEAP1-HaloTag cell lysates
Experimental: Compounds 1 to 53 produced in the Examples were used as test substances.
The inhibitory activity of each compound on the binding between NRF2 and KEAP1 was measured by bioluminescence resonance energy transfer (BRET) assay. A plasmid having human NRF2 (Original Clone ID: ha01449s1) sequence fused with NanoLuc (19 kDa, Promega) at the N-terminal was transduced into HCE-T cells using FuGENE HD (Promega). 48 hours after transduction, the cell lysate was collected and used as an NRF2-expressing cell lysate. A plasmid having human KEAP1 (Original Clone ID: cs00328) sequence fused with HaloTag (33 kDa, Promega) at the C-terminal was transduced into HCE-T cells using FuGENE HD (Promega). After 24 hours, HaloTag Nano BRET 618 Ligand (Promega) was added to the medium. The cell lysate cultured for 24 hours after the addition was used as a KEAP1-expressing cell lysate.
The NRF2-expressing cell lysate and the KEAP1-expressing cell lysate were adjusted so that the luminescence and fluorescence intensities per well were constant. Tables 1 and 2 show the formulation of each reaction solution.
Each test substance at a concentration 100 times higher than the test concentration was dissolved in dimethylsulfoxide for adjustment. 49 μL of KEAP1 solution was added to a 96-well polystyrene microplate (FALCON) to which 1 μL of each test substance solution was added, followed by incubation for 15 minutes. Then, 50 μL of NRF2 solution was added to the above solution, followed by incubation for 1 hour. To measure the binding between NRF2 and KEAP1, NanoBRET Nano-Glo Substrate (Promega) diluted with Opti-Mem (Thermo Fisher Scientific) was added, followed by shaking for 30 seconds. Then, luminescence and fluorescence were measured using the GloMax Discover System (Promega). A 495-nm short pass filter and a 600-nm long pass filter were respectively used to measure donor and acceptor emission values. A value obtained by dividing the acceptor emission value by the donor emission value was regarded as BRET value. A BRET value when the compound was not added, and a BRET value when the KEAP1 solution was not added were respectively used as binding rates of 100% and 0%, and the binding rate when the compound was added was calculated. Further, using this binding rate, the 50% binding inhibitory activity concentration (IC50) was calculated from the following formula: IC50(M)=10^(LOG(A/B)×(50−C)/(D−C)+LOG(B)) • A: higher concentration out of 2 close concentrations across the inhibition rate of 50% • B: lower concentration out of 2 close concentrations across the inhibition rate of 50% • C: inhibition rate at B • D: inhibition rate at A

T1 sequence (Q14145 whole entry): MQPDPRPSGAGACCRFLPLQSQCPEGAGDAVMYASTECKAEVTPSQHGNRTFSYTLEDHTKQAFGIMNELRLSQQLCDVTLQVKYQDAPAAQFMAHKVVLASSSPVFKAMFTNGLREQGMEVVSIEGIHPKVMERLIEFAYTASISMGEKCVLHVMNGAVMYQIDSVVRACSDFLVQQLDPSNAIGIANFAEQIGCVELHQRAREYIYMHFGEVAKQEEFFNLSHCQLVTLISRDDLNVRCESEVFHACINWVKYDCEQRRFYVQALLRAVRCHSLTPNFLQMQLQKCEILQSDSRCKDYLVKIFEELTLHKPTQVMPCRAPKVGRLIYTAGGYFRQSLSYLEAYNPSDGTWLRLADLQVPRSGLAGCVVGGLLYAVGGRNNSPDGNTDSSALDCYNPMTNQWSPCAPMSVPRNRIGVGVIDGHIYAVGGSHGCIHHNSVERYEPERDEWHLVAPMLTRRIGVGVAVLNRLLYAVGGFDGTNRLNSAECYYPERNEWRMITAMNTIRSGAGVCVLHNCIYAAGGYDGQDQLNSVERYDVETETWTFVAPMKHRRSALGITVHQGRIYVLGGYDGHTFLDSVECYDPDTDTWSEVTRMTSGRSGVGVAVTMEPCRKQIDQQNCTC

Row | IC50 [nM] | Structure (SMILES)
1 | 35 | CC[C@@H]1CN(Cc2cc(C(CC(=O)O)c3ccc(S(N)(=O)=O)s3)ccc2C)S(=O)(=O)c2ccccc2O1 (stereo partly drawn) [Compound 18, 3-(3-{[(R)-4-ethyl-1,1-dioxide-3,4-dihydro-2H-benzo[b][1,4,5]oxathiazepin-2-yl]methyl}-4-methylphenyl)-3-(5-sulfamoylthiophen-2-yl)propanoic acid]
2 | 24 | CC[C@@H]1CN(Cc2cc(C(CC(=O)O)c3ccc(C(=O)C4CC4)s3)ccc2C)S(=O)(=O)c2ccccc2O1 (stereo partly drawn) [Compound 20, 3-[5-(cyclopropanecarbonyl)thiophen-2-yl]-3-(3-{[(R)-4-ethyl-1,1-dioxide-3,4-dihydro-2H-benzo[b][1,4,5]oxathiazepin-2-yl]methyl}-4-methylphenyl)propanoic acid]

Tested on: not listed separately
Test: Measurement of metabolic stability in human liver microsomes
Assay type: in vitro ADME
Details: residual ratio of test compound after 30 minutes at 37° C. with human liver microsome, LC/MS/MS
Experimental: 1 mmol/L DMSO solutions of the compounds produced in the Examples were prepared. Each of the 1 mmol/L DMSO solutions was diluted with acetonitrile to 10 μmol/L, and then diluted with a 6.5 mmol/L Q-NADPH solution to 200 nmol/L. 50 μL of each solution was added to the reaction group and the non-reaction group. 50 μL of a 0.2 mg protein/mL human liver microsome (Mixed Gender, Pool of 50 livers; XenoTech, LLC) solution was added to the reaction group, followed by incubation at 37° C. for 30 minutes with shaking. After 400 μL of methanol was added to the non-reaction group, 50 μL of a 0.2 mg protein/mL human liver microsome solution was added to adjust the formulation. After incubation in the reaction group, 400 μL of methanol was added to stop the reaction. The samples of the reaction group and non-reaction group were allowed to stand at −20° C. for about 30 minutes, followed by centrifugation at 4° C. at 3000 rpm for about 10 minutes. The supernatant was analyzed using LC/MS/MS, and the residual ratio of the test compound was calculated from the peak area value of the test compound using the following formula. The measurement was carried out using the following devices: HPLC system: LC-20A-Series High Performance Liquid Chromatograph (Shimadzu Corporation) and mass spectrometer: API 4000 (AB Sciex Pte. Ltd.), or using equivalent devices. Residual ratio (%)=(peak area value of test compound in reaction group/peak area value of test compound in non-reaction group)×100 Results

Row | Metabolic stability* [%] | Structure (SMILES)
3 | 53 | CC[C@@H]1CN(Cc2cc(C(CC(=O)O)c3ccc(C(C)=O)s3)ccc2C)S(=O)(=O)c2ccccc2O1 (stereo partly drawn) [Compound 5, 3-(5-acetylthiophen-2-yl)-3-(3-{[(R)-4-ethyl-1,1-dioxide-3,4-dihydro-2H-benzo[b][1,4,5]oxathiazepin-2-yl]methyl}-4-methylphenyl)propanoic acid]
4 | 32 | CC[C@@H]1CN(Cc2cc(C(c3ccc(C(C)=O)s3)C(C)(C)C(=O)O)ccc2C)S(=O)(=O)c2ccccc2O1 (stereo partly drawn) [Compound 6, 3-(5-acetylthiophen-2-yl)-3-(3-{[(R)-4-ethyl-1,1-dioxide-3,4-dihydro-2H-benzo[b][1,4,5]oxathiazepin-2-yl]methyl}-4-methylphenyl)-2,2-dimethylpropanoic acid]
5 | 30 | CC[C@@H]1CN(Cc2cc(C(CC(=O)O)c3cc(C)c(C(C)=O)s3)ccc2C)S(=O)(=O)c2ccccc2O1 (stereo partly drawn) [Compound 7, 3-(5-acetyl-4-methylthiophen-2-yl)-3-(3-{[(R)-4-ethyl-1,1-dioxide-3,4-dihydro-2H-benzo[b][1,4,5]oxathiazepin-2-yl]methyl}-4-methylphenyl)propanoic acid]
6 | 36 | CC[C@@H]1CN(Cc2cc(C(CC(=O)O)c3cc(F)c(C(C)=O)s3)ccc2C)S(=O)(=O)c2ccccc2O1 (stereo partly drawn) [Compound 8, 3-(5-acetyl-4-fluorothiophen-2-yl)-3-(3-{[(R)-4-ethyl-1,1-dioxide-3,4-dihydro-2H-benzo[b][1,4,5]oxathiazepin-2-yl]methyl}-4-methylphenyl)propanoic acid]
7 | 38 | CC[C@@H]1CN(Cc2cc(C(c3ccc(C(C)=O)s3)C(C)(C)C(=O)O)ccc2C)S(=O)(=O)c2c(F)cccc2O1 (stereo partly drawn) [Compound 9, 3-(5-acetylthiophen-2-yl)-3-(3-{[(R)-4-ethyl-9-fluoro-1,1-dioxide-3,4-dihydro-2H-benzo[b][1,4,5]oxathiazepin-2-yl]methyl}-4-methylphenyl)-2,2-dimethylpropanoic acid]
8 | 39 | CC[C@@H]1CN(Cc2cc(C(CC(=O)O)c3cc(C(C)=O)cs3)ccc2C)S(=O)(=O)c2ccccc2O1 (stereo partly drawn) [Compound 10, 3-(4-acetylthiophen-2-yl)-3-(3-{[(R)-4-ethyl-1,1-dioxide-3,4-dihydro-2H-benzo[b][1,4,5]oxathiazepin-2-yl]methyl}-4-methylphenyl)propanoic acid]
9 | 27 | CC[C@@H]1CN(Cc2cc(C(c3cc(F)c(C(C)=O)s3)C(C)(C)C(=O)O)ccc2C)S(=O)(=O)c2ccccc2O1 (stereo partly drawn) [Compound 11, 3-(5-acetyl-4-fluorothiophen-2-yl)-3-(3-{[(R)-4-ethyl-1,1-dioxide-3,4-dihydro-2H-benzo[b][1,4,5]oxathiazepin-2-yl]methyl}-4-methylphenyl)-2,2-dimethylpropanoic acid]
10 | 56 | CC(=O)c1ccc(C(c2ccc(C)c(CN3C[C@@H](C)Oc4ccccc4S3(=O)=O)c2)C(C)(C)C(=O)O)s1 (stereo partly drawn) [Compound 12, 3-(5-acetylthiophen-2-yl)-2,2-dimethyl-3-(4-methyl-3-{[(R)-4-methyl-1,1-dioxide-3,4-dihydro-2H-benzo[b][1,4,5]oxathiazepin-2-yl]methyl}phenyl)propanoic acid]
11 | 25 | CC[C@@H]1CN(Cc2cc(C(CC(=O)O)c3sc(C(C)=O)cc3C)ccc2C)S(=O)(=O)c2ccccc2O1 (stereo partly drawn) [Compound 14, 3-(5-acetyl-3-methylthiophen-2-yl)-3-(3-{[(R)-4-ethyl-1,1-dioxide-3,4-dihydro-2H-benzo[b][1,4,5]oxathiazepin-2-yl]methyl}-4-methylphenyl)propanoic acid]
12 | 47 | CC[C@@H]1CN(Cc2cc(C(CC(=O)O)c3csc(C(C)=O)c3)ccc2C)S(=O)(=O)c2ccccc2O1 (stereo partly drawn) [Compound 15, 3-(5-acetylthiophen-3-yl)-3-(3-{[(R)-4-ethyl-1,1-dioxide-3,4-dihydro-2H-benzo[b][1,4,5]oxathiazepin-2-yl]methyl}-4-methylphenyl)propanoic acid]
13 | 36 | CC[C@@H]1CN(Cc2cc(C(CC(=O)O)c3cccs3)ccc2C)S(=O)(=O)c2ccccc2O1 (stereo partly drawn) [Compound 17, 3-(3-{[(R)-4-ethyl-1,1-dioxide-3,4-dihydro-2H-benzo[b][1,4,5]oxathiazepin-2-yl]methyl}-4-methylphenyl)-3-(thiophen-2-yl)propanoic acid]
14 | 40 | CC[C@@H]1CN(Cc2cc(C(CC(=O)O)c3ccc(S(N)(=O)=O)s3)ccc2C)S(=O)(=O)c2ccccc2O1 (stereo partly drawn) [Compound 18, 3-(3-{[(R)-4-ethyl-1,1-dioxide-3,4-dihydro-2H-benzo[b][1,4,5]oxathiazepin-2-yl]methyl}-4-methylphenyl)-3-(5-sulfamoylthiophen-2-yl)propanoic acid]
15 | 23 | CC[C@@H]1CN(Cc2cc(C(CC(=O)O)c3ccc(C#N)s3)ccc2C)S(=O)(=O)c2ccccc2O1 (stereo partly drawn) [Compound 19, 3-(5-cyanothiophen-2-yl)-3-(3-{[(R)-4-ethyl-1,1-dioxide-3,4-dihydro-2H-benzo[b][1,4,5]oxathiazepin-2-yl]methyl}-4-methylphenyl)propanoic acid]
16 | 7 | CC[C@@H]1CN(Cc2cc(C(CC(=O)O)c3ccc(C(=O)C4CC4)s3)ccc2C)S(=O)(=O)c2ccccc2O1 (stereo partly drawn) [Compound 20, 3-[5-(cyclopropanecarbonyl)thiophen-2-yl]-3-(3-{[(R)-4-ethyl-1,1-dioxide-3,4-dihydro-2H-benzo[b][1,4,5]oxathiazepin-2-yl]methyl}-4-methylphenyl)propanoic acid]
17 | 74 | CC[C@@H]1CN(Cc2cc(C(CC(=O)O)c3ccc(C(=O)NC)s3)ccc2C)S(=O)(=O)c2ccccc2O1 (stereo partly drawn) [Compound 21, 3-(3-{[(R)-4-ethyl-1,1-dioxide-3,4-dihydro-2H-benzo[b][1,4,5]oxathiazepin-2-yl]methyl}-4-methylphenyl)-3-[5-(methylcarbamoyl)thiophen-2-yl]propanoic acid]
18 | 77 | CC[C@@H]1CN(Cc2cc(C(CC(=O)O)c3csc(C(=O)NC)c3)ccc2C)S(=O)(=O)c2ccccc2O1 (stereo partly drawn) [Compound 22, 3-(3-{[(R)-4-ethyl-1,1-dioxide-3,4-dihydro-2H-benzo[b][1,4,5]oxathiazepin-2-yl]methyl}-4-methylphenyl)-3-[5-(methylcarbamoyl)thiophen-3-yl]propanoic acid]
19 | 75 | CC[C@@H]1CN(Cc2cc(C(CC(=O)O)c3ccc(C(N)=O)s3)ccc2C)S(=O)(=O)c2ccccc2O1 (stereo partly drawn) [Compound 23, 3-(5-carbamoylthiophen-2-yl)-3-(3-{[(R)-4-ethyl-1,1-dioxide-3,4-dihydro-2H-benzo[b][1,4,5]oxathiazepin-2-yl]methyl}-4-methylphenyl)propanoic acid]
20 | 53 | CC[C@@H]1CN(Cc2cc(C(c3cc(F)c(C(C)=O)s3)C(C)C(=O)O)ccc2C)S(=O)(=O)c2cnccc2O1 (stereo partly drawn) [Compound 52, 3-(5-acetyl-4-fluorothiophen-2-yl)-3-(3-{[(R)-4-ethyl-1,1-dioxide-3,4-dihydro-2H-pyrido[4,3-b][1,4,5]oxathiazepin-2-yl]methyl}-4-methylphenyl)-2-methylpropanoic acid]
